Format in all cases: biochemical
One experiment deals with CDK2/CCNE1 (Homo sapiens, UniProt P24941). Description: CDK2 homogeneous time-resolved fluorescence (HTRF) kinase assay. To be noted: CDK2/CCNE. The procedure, abridged: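 CDK2/CCNE1 (3 nM) preincubated 20 min at 23 °C with compound, then reacted 60 min at 23 °C with 1 mM ATP and 50 nM ULight-4E-BP1 (Thr37/46) peptide. Stopped with EDTA, phospho-peptide detected by Eu-anti-phospho antibody (665 nm or 665/615 ratio). IC50 from 11-point half-log titrations typically starting at 10 μM.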
On the technique in general: TR-FRET usually uses a lanthanide donor and a delayed reading to cut background.

In another experiment the target is CDK1/CCNB1 (Homo sapiens, UniProt P06493). Put plainly: CDK1 homogeneous time-resolved fluorescence (HTRF) kinase assay. To be noted: CDK1/CCNB; x = IC50 >250 nM; read-out: CDK1/CCNB IC50 (>250 nM column). Summed up: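 Compounds, titrated 11 points in half-log steps typically from 10 μM, were incubated with enzyme for 20 min before ATP (1 mM) and ULight-labelled eIF4E-binding protein 1 peptide (50 nM) started a 60-min reaction at 23 °C. Phosphopeptide was detected by europium-antibody TR-FRET and IC50 values were derived.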
Sequence of CDK1/CCNB1 (P06493 whole entry): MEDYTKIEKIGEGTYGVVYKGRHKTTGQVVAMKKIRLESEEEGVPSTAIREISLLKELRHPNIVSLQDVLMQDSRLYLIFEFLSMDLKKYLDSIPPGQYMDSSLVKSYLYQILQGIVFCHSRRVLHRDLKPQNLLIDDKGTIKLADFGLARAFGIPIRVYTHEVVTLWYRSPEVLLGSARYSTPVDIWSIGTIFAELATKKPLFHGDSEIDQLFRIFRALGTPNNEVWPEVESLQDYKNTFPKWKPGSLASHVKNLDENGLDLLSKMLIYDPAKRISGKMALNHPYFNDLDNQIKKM
Sequence of CDK1/CCNB1 (P14635 whole entry partner): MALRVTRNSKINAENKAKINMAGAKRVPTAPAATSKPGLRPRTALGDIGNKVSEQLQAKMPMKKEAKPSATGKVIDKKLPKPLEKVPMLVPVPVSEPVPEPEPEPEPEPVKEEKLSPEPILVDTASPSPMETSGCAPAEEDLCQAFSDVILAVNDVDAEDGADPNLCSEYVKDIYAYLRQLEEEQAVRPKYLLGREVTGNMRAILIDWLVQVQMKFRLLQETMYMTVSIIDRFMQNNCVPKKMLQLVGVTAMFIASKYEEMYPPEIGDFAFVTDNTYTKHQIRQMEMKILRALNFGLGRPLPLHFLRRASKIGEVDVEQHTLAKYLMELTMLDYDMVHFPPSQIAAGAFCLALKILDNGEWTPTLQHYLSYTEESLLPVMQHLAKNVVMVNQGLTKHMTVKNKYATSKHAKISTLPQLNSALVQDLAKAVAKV

For another experiment, the target named is CDK4/CCND3 (Homo sapiens, UniProt P11802). Put plainly: CDK4 homogeneous time-resolved fluorescence (HTRF) kinase assay. To be noted: CDK4/CCND; x = IC50 >250 nM; read-out: CDK4/CCND IC50 (>250 nM column). The procedure, abridged:
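Inhibition of CDK4/CCND3 (1.5 nM) was measured at high ATP (1 mM) using 50 nM ULight-labelled 4E-BP1 Thr37/46 peptide; detection used 2 nM europium anti-phospho antibody after EDTA quench. IC50 values came from 11-point half-log titrations typically starting at 10 μM.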

For a further experiment, the target named is CDK6/CCND1 (Homo sapiens, UniProt Q00534). Description: CDK6 homogeneous time-resolved fluorescence (HTRF) kinase assay. To be noted: CDK6/CCND. The procedure, abridged:
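1 nM enzyme, 1 mM ATP, 50 nM ULight-4E-BP1 (Thr37/46) peptide, 1% DMSO; 20 min compound preincubation, 60 min reaction, 23 °C. EDTA stop, 2 nM Eu-anti-phospho-4E-BP1 antibody 60 min. TR-FRET 665 nm (or 665/615 ratio); IC50 from 11-point half-log titration, top 10 μM.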

Setting [1] is: x = IC50 <25 nM, read-out: CDK2/CCNE IC50 (<25 nM).
Setting [2] is: x = IC50 >250 nM, read-out: CDK6/CCND IC50 (>250 nM column).
Where [3] appears, read: x = IC50 25-250 nM, read-out: CDK2/CCNE IC50 (25-250 nM).
The mark [4] stands for this setting: x = IC50 >250 nM, read-out: CDK2/CCNE IC50 (>250 nM column).
Where [5] appears, read: x = IC50 <25 nM, read-out: CDK6/CCND IC50 (<25 nM).

Like-named read-outs stand apart in the source and are kept apart here.

Sequence of CDK6/CCND1 (Q00534 whole entry): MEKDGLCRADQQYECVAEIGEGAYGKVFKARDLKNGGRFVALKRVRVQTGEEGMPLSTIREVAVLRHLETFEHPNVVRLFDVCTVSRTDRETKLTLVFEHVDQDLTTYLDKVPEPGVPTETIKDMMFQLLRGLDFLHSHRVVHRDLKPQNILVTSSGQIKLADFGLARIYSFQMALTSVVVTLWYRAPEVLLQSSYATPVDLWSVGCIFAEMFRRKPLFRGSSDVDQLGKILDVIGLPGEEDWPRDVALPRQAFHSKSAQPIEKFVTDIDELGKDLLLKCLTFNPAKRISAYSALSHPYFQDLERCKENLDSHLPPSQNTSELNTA
Sequence of CDK6/CCND1 (P24385 whole entry partner): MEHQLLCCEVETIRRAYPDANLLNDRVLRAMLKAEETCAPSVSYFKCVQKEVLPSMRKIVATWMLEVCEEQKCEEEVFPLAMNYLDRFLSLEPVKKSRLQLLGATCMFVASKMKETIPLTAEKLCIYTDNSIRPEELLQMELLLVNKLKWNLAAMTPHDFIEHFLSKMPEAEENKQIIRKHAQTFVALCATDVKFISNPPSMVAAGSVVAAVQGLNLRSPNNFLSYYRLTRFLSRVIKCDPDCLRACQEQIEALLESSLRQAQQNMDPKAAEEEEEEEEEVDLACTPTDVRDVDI
Sequence of CDK4/CCND3 (P11802 whole entry): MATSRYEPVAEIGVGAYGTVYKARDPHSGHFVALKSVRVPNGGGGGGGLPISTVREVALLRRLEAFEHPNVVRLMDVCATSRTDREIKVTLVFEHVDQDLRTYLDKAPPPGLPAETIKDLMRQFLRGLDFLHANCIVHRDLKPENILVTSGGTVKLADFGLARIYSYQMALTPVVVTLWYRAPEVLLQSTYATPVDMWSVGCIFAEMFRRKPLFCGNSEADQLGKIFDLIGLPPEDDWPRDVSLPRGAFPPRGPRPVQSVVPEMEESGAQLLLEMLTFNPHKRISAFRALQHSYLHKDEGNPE
Sequence of CDK4/CCND3 (P30281 whole entry partner): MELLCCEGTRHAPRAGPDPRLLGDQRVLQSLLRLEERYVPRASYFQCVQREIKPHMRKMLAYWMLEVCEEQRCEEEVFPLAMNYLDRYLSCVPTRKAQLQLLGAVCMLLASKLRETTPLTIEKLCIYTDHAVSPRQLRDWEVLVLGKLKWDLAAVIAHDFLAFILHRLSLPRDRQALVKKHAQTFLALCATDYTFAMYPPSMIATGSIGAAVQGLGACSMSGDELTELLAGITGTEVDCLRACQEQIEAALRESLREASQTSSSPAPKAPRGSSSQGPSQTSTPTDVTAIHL

For `CS(=O)(=O)c1ccc(Nc2cc3c(C#Cc4cnncc4N)nccc3cn2)cc1` [Ex 537, 5-((5-aminopyridazin-4-yl)ethynyl)-N-(4-(methylsulfonyl)phenyl)-2,6-naphthyridin-3-amine], the IC50 is below 25 nM at CDK2/CCNE1 (setting [1]), above 250 nM on CDK1/CCNB1, above 250 nM at CDK4/CCND3 and above 250 nM on CDK6/CCND1 (setting [2]).

With `CN(C)c1ncc(C#Cc2nccc3cnc(Nc4ccc(S(C)(=O)=O)cc4)cc23)cn1` [Ex 538, 5-((2-(dimethylamino)pyrimidin-5-yl)ethynyl)-N-(4-(methylsulfonyl)phenyl)-2,6-naphthyridin-3-amine], the IC50 on CDK2/CCNE1 (setting [3]) was 25 to 250 nM; at CDK1/CCNB1, above 250 nM; at CDK4/CCND3 it was above 250 nM; on CDK6/CCND1 (setting [2]), above 250 nM.

As for `CS(=O)(=O)c1ccc(Nc2cc3c(C#Cc4ccc(OC(F)F)nc4)nccc3cn2)cc1` [Ex 539, 5-((6-(difluoromethoxy)pyridin-3-yl)ethynyl)-N-(4-(methylsulfonyl)phenyl)-2,6-naphthyridin-3-amine], the IC50 was 25 to 250 nM at CDK2/CCNE1 (setting [3]), above 250 nM at CDK1/CCNB1, above 250 nM on CDK4/CCND3 and above 250 nM at CDK6/CCND1 (setting [2]).

As to `Cc1nc(C#Cc2nccc3cnc(Nc4ccc(S(C)(=O)=O)cc4)cc23)sc1C` [Ex 540, 5-((4,5-dimethylthiazol-2-yl)ethynyl)-N-(4-(methylsulfonyl)phenyl)-2,6-naphthyridin-3-amine], the IC50 on CDK2/CCNE1 (setting [4]), at CDK1/CCNB1, at CDK4/CCND3 and at CDK6/CCND1 (setting [2]) was above 250 nM in each case.

`Cc1nc(N)nc(C)c1C#Cc1nccc2cnc(Nc3ccc(S(C)(=O)=O)cc3)cc12` [Ex 541, 5-((2-amino-4,6-dimethylpyrimidin-5-yl)ethynyl)-N-(4-(methylsulfonyl)phenyl)-2,6-naphthyridin-3-amine]: the IC50 on CDK2/CCNE1 (setting [3]) was 25 to 250 nM; on CDK1/CCNB1 it was above 250 nM; on CDK4/CCND3, above 250 nM; at CDK6/CCND1 (setting [2]) it was above 250 nM.

On to `CC(C)(O)c1nc2ccc(C#Cc3nccc4cnc(Nc5ccc(S(C)(=O)=O)cc5)cc34)cc2[nH]1` [Ex 542, 2-(6-((7-((4-(methylsulfonyl)phenyl)amino)-2,6-naphthyridin-1-yl)ethynyl)-1H-benzo[d]imidazol-2-yl)propan-2-ol], for which the IC50 at CDK2/CCNE1 (setting [1]) is below 25 nM; on CDK1/CCNB1, above 250 nM; on CDK4/CCND3, above 250 nM; on CDK6/CCND1 (setting [2]), above 250 nM.

For `CC(C)(O)Cn1cnc2ccc(C#Cc3nccc4cnc(Nc5ccc(S(C)(=O)=O)cc5)cc34)cc21` [Ex 543, 2-methyl-1-(6-((7-((4-(methylsulfonyl)phenyl)amino)-2,6-naphthyridin-1-yl)ethynyl)-1H-benzo[d]imidazol-1-yl)propan-2-ol], the IC50 at CDK2/CCNE1 (setting [4]), at CDK1/CCNB1, on CDK4/CCND3 and at CDK6/CCND1 (setting [2]) was above 250 nM each time.

As for `CNc1ccncc1C#Cc1nccc2cnc(Nc3ccc(S(C)(=O)=O)cc3)cc12` [Ex 547, 5-((4-(methylamino)pyridin-3-yl)ethynyl)-N-(4-(methylsulfonyl)phenyl)-2,6-naphthyridin-3-amine], the IC50 on CDK2/CCNE1 (setting [4]), on CDK1/CCNB1, at CDK4/CCND3 and at CDK6/CCND1 (setting [2]) was above 250 nM each time.

For the compound `CS(=O)(=O)c1ccc(Nc2cc3c(C#Cc4ccnc5[nH]ncc45)nccc3cn2)cc1` [Ex 548, 5-((1H-pyrazolo[3,4-b]pyridin-4-yl)ethynyl)-N-(4-(methylsulfonyl)phenyl)-2,6-naphthyridin-3-amine], the IC50 on CDK2/CCNE1 (setting [3]) was 25 to 250 nM; on CDK1/CCNB1 it was above 250 nM; on CDK4/CCND3, above 250 nM; at CDK6/CCND1 (setting [2]), above 250 nM.

For the compound `CS(=O)(=O)c1ccc(Nc2cc3c(C#Cc4cc(F)c(N)c(F)c4)nccc3cn2)cc1` [Ex 549, 5-((4-amino-3,5-difluorophenyl)ethynyl)-N-(4-(methylsulfonyl)phenyl)-2,6-naphthyridin-3-amine], the IC50 was 25 to 250 nM on CDK2/CCNE1 (setting [3]), above 250 nM at CDK1/CCNB1, above 250 nM on CDK4/CCND3 and above 250 nM at CDK6/CCND1 (setting [2]).

For the compound `CS(=O)(=O)c1ccc(Nc2cc3c(C#Cc4cnn(CC(F)(F)F)c4)nccc3cn2)cc1` [Ex 550, N-(4-(methylsulfonyl)phenyl)-5-((1-(2,2,2-trifluoroethyl)-1H-pyrazol-4-yl)ethynyl)-2,6-naphthyridin-3-amine], the IC50 on CDK2/CCNE1 (setting [3]) is 25 to 250 nM; on CDK1/CCNB1, above 250 nM; on CDK4/CCND3, above 250 nM; at CDK6/CCND1 (setting [2]), above 250 nM.

`CS(=O)(=O)c1ccc(Nc2cc3c(C#Cc4n[nH]c5cccc(F)c45)nccc3cn2)cc1` [Ex 551, 5-((4-fluoro-1H-indazol-3-yl)ethynyl)-N-(4-(methylsulfonyl)phenyl)-2,6-naphthyridin-3-amine]: the IC50 is 25 to 250 nM on CDK2/CCNE1 (setting [3]), above 250 nM on CDK1/CCNB1, above 250 nM at CDK4/CCND3 and below 25 nM at CDK6/CCND1 (setting [5]).

In the case of `CS(=O)(=O)c1ccc(Nc2cc3c(C#Cc4ncc(N)nc4Cl)nccc3cn2)cc1` [Ex 552, 5-((5-amino-3-chloropyrazin-2-yl)ethynyl)-N-(4-(methylsulfonyl)phenyl)-2,6-naphthyridin-3-amine], the IC50 on CDK2/CCNE1 (setting [3]) is 25 to 250 nM; at CDK1/CCNB1 it was above 250 nM; on CDK4/CCND3 it was above 250 nM; on CDK6/CCND1 (setting [5]) it was below 25 nM.

Regarding `Cc1ccc(C#Cc2nccc3cnc(Nc4ccc(S(C)(=O)=O)cc4)cc23)c(C#N)n1` [Ex 553, 6-methyl-3-((7-((4-(methylsulfonyl)phenyl)amino)-2,6-naphthyridin-1-yl)ethynyl)picolinonitrile], the IC50 at CDK2/CCNE1 (setting [3]) was 25 to 250 nM; on CDK1/CCNB1, above 250 nM; at CDK4/CCND3, above 250 nM; on CDK6/CCND1 (setting [5]), below 25 nM.

`CS(=O)(=O)c1ccc(Nc2cc3c(C#Cc4ccc(C#N)cc4F)nccc3cn2)cc1` [Ex 554, 3-fluoro-4-((7-((4-(methylsulfonyl)phenyl)amino)-2,6-naphthyridin-1-yl)ethynyl)benzonitrile]: the IC50 is 25 to 250 nM on CDK2/CCNE1 (setting [3]), above 250 nM at CDK1/CCNB1, above 250 nM at CDK4/CCND3 and above 250 nM at CDK6/CCND1 (setting [2]).

`Cc1cnc(C#Cc2nccc3cnc(Nc4ccc(S(C)(=O)=O)cc4)cc23)c(C)n1` [Ex 555, 5-((3,5-dimethylpyrazin-2-yl)ethynyl)-N-(4-(methylsulfonyl)phenyl)-2,6-naphthyridin-3-amine]: the IC50 at CDK2/CCNE1 (setting [3]) is 25 to 250 nM; on CDK1/CCNB1, above 250 nM; at CDK4/CCND3 it was above 250 nM; on CDK6/CCND1 (setting [2]) it was above 250 nM.

As to `CS(=O)(=O)c1ccc(Nc2cc3c(C#Cc4cc(F)cnc4N)nccc3cn2)cc1` [Ex 556, 5-((2-amino-5-fluoropyridin-3-yl)ethynyl)-N-(4-(methylsulfonyl)phenyl)-2,6-naphthyridin-3-amine], the IC50 at CDK2/CCNE1 (setting [3]) is 25 to 250 nM; on CDK1/CCNB1, above 250 nM; at CDK4/CCND3, above 250 nM; on CDK6/CCND1 (setting [2]) it was above 250 nM.

As for `CS(=O)(=O)c1ccc(Nc2cc3c(C#Cc4cc(N)ncc4F)nccc3cn2)cc1` [Ex 557, 5-((2-amino-5-fluoropyridin-4-yl)ethynyl)-N-(4-(methylsulfonyl)phenyl)-2,6-naphthyridin-3-amine], the IC50 on CDK2/CCNE1 (setting [1]) was below 25 nM; on CDK1/CCNB1 it was above 250 nM; at CDK4/CCND3, above 250 nM; at CDK6/CCND1 (setting [2]) it was above 250 nM.

On to `CS(=O)(=O)c1ccc(Nc2cc3c(C#Cc4ccc(N)nc4Cl)nccc3cn2)cc1` [Ex 558, 5-((6-amino-2-chloropyridin-3-yl)ethynyl)-N-(4-(methylsulfonyl)phenyl)-2,6-naphthyridin-3-amine], for which the IC50 was 25 to 250 nM on CDK2/CCNE1 (setting [3]), above 250 nM on CDK1/CCNB1, above 250 nM on CDK4/CCND3 and above 250 nM on CDK6/CCND1 (setting [2]).

In the case of `CS(=O)(=O)c1ccc(Nc2cc3c(C#Cc4cc(N)n[nH]4)nccc3cn2)cc1` [Ex 559, 5-((3-amino-1H-pyrazol-5-yl)ethynyl)-N-(4-(methylsulfonyl)phenyl)-2,6-naphthyridin-3-amine], the IC50 is 25 to 250 nM on CDK2/CCNE1 (setting [3]), above 250 nM at CDK1/CCNB1, above 250 nM on CDK4/CCND3 and above 250 nM on CDK6/CCND1 (setting [2]).

In the case of `CS(=O)(=O)c1ccc(Nc2cc3c(C#Cc4ccc(F)c(O)c4)nccc3cn2)cc1` [Ex 560, 2-fluoro-5-((7-((4-(methylsulfonyl)phenyl)amino)-2,6-naphthyridin-1-yl)ethynyl)phenol], the IC50 at CDK2/CCNE1 (setting [3]) was 25 to 250 nM; at CDK1/CCNB1 it was above 250 nM; at CDK4/CCND3, above 250 nM; at CDK6/CCND1 (setting [2]), above 250 nM.

The values are drawn from US20260325533A1, “CDK INHIBITOR COMPOUNDS” (ALEKSIA THERAPEUTICS, INC., priority 2023, published 2026).
